Source: patent publication EP4792822A1, “USE OF PEPTIDE AMIDE COMPOUND IN PREPARATION OF DRUG FOR […] AND VOMITING” (Haisco Pharmaceutical Group Co., Ltd., priority 2023, dated 2025)

Test system: subjects undergoing elective laparoscopic abdominal surgery under general anaesthesia
Assay: Example 1: phase III, placebo-controlled clinical study of compound 1 injection for postoperative analgesia (morphine rescue; nausea and vomiting recorded)
Assay type: in vivo, patients
Excerpt: This study was a multicentre, randomised, double-blind, placebo-controlled phase III clinical study conducted in China to evaluate the efficacy and safety of compound 1 injection for postoperative analgesia in subjects undergoing elective laparoscopic abdominal surgery under general anaesthesia. […] subjects undergoing elective laparoscopic abdominal surgery under general anaesthesia were enrolled and randomised to two groups: the compound 1 group (136 subjects) and the placebo group (135 subjects). All subjects received an intravenous injection of compound 1 injection or placebo injection within 5 min after the completion of the first NRS score assessment, and the end time of the first postoperative administration was recorded as 0 min. At 8 h and 16 h after the end of the first administration, within a time window of ±15 min, a single corresponding dose of the compound 1 injection or placebo injection was administered intravenously to the subjects.
Resting NRS score assessments were performed in subjects within 5 min before the first postoperative administration, and at 15 min ± 5 min, 30 min ± 5 min, 1 h ± 5 min, 2 h ± 15 min, 4 h ± 15 min, 8 h (within 30 min before the second postoperative administration), 12 h ± 30 min, 16 h (within 30 min before the last postoperative administration), 20 h ± 30 min, and 24 h ± 1 h after the first postoperative administration. The NRS score for resting pain refers to the NRS score assessed when the subject is at rest (e.g., sitting or lying still). If the subject was unconscious at a scheduled NRS assessment time point, the score was recorded as follows: if the previous NRS score was ≥ 2, the current NRS score was recorded as 2; if the previous NRS score was < 2, the current NRS score was recorded as the previous score. Meanwhile, it was documented that the subject was unconscious at the time of assessment.
A morphine injection was administered via intravenous injection for rescue treatment if the resting pain NRS score was ≥ 4 at any pain assessment time point after the first postoperative administration, or if the subject complained of pain at any time point and the resting pain NRS score was ≥ 4. It was recommended that the time from the subject's NRS assessment to actual administration of morphine injection be ≤ 30 min; an initial intravenous dose of 3 mg be administered, followed by additional doses as needed. It was also recommended that the interval between two rescue treatments be ≥ 2 h and that the interval between rescue medication and study drug administration be ≥ 1 h.
Prophylactic antiemetic treatment was prohibited during the study. After the first postoperative administration, the investigator administered antiemetic agents based on the occurrence of nausea and vomiting in the subject, and the dosage of the antiemetic agents was recorded. Tropisetron was the preferred antiemetic agent (an initial intravenous dose of 2.5 mg, followed by additional doses as needed, not to exceed 10 mg within 24 h). If tropisetron was insufficiently effective, other agents were used by the investigator in accordance with routine clinical practice.
Abdominal surgery, female sex, non-smoking status, and postoperative opioid use are known as risk factors leading to postoperation nausea and vomiting (PONV). Two studies of compound 1 injection for postoperative analgesia after abdominal surgery were completed. Morphine (Example 1) and flurbiprofen axetil (Example 2) were used as rescue analgesic agents in the two studies, respectively, and prophylactic antiemetic treatment was prohibited during the studies. The study results were summarised as follows.

[1] = Example 1, No morphine use (no rescue analgesia), N = 91
[2] = Example 1, No morphine use, listed as compound 1
[3] = Example 1, Overall, safety analysis set, N = 136
[4] = Example 1, Overall, safety analysis set, N = 136, listed as compound 1
[5] = within 0-12 h and 0-24 h after the first postoperative administration, compared with placebo
[6] = within 0-24 h after the first administration, compared with placebo

CC(=O)N1CC2(CCN(C(=O)[C@@H](CCCCN)NC(=O)[C@@H](CC(C)C)NC(=O)[C@@H](Cc3ccccc3)NC(=O)[C@H](N)Cc3ccccc3)CC2)C1 [Compound 1, (2R)-N-[(1R)-1-(2-acetyl-2,7-diazaspiro[3.5]nonane-7-carbonyl)-5-amino-pentyl]-2-[[(2R)-2-[[(2R)-2-amino-3-phenyl-propionyl]amino]-3-phenylpropionyl]amino]-4-methyl-pentanamide]
overall safety and tolerability (Example 1): good overall safety and tolerability
Change in incidence of nausea relative to placebo (Example 1, No morphine use): 25.7% reduction
Change in incidence of vomiting relative to placebo (Example 1, No morphine use): 20.1% reduction
Nausea (incidence) [1]: 16.5%
Vomiting (incidence) [1]: 18.7%
Change in incidence of nausea relative to placebo [2]: 25.7 % reduction
Change in incidence of vomiting relative to placebo [2]: 20.1 % reduction
Change in incidence of nausea relative to placebo (Example 1, Overall): 35.8% reduction
Change in incidence of vomiting relative to placebo (Example 1, Overall): 52.8% reduction
Nausea (incidence) [3]: 17.6%
Vomiting (incidence) [3]: 15.4%
Nausea (incidence) [4]: 17.6%
Vomiting (incidence) [4]: 15.4%
PID at each time point (compared with placebo): significantly lower than those in the placebo group
SPID0-12 h after the first postoperative administration (compared with placebo): significantly lower than those in the placebo group
SPID0-24 h after the first postoperative administration (compared with placebo): superior to that in the placebo group
duration of analgesia (compared with placebo): significantly longer than those in the placebo group
incidences of adverse reactions (compared with placebo): comparable to those in the placebo group
incidences of adverse reactions (including nausea and vomiting) (compared with placebo): significantly lower than those in the placebo group
incidences of the main TEAEs (including nausea and vomiting) (compared with placebo): significantly lower than those in the placebo group
subject and investigator satisfaction scores for postoperative analgesia (compared with placebo): significantly higher than those in the placebo group
time to the first use of rescue analgesic agents (compared with placebo): significantly longer than those in the placebo group
effect on PONV in patients after abdominal surgery (summary of both Phase III studies (Example 1)): preventive and/or alleviating effect on PONV
mean cumulative dosage of rescue analgesic agents [5]: significantly lower than those in the placebo group
proportion of subjects with NRS scores ≤ 3 [5]: significantly higher than those in the placebo group
mean cumulative dosage of antiemetic agents [6]: significantly lower than those in the placebo group
proportion of subjects using antiemetic agents [6]: significantly lower than those in the placebo group
proportion of subjects using rescue analgesic agents (within 0-24 h after the first postoperative administration, compared with placebo): significantly lower than those in the placebo group
